Assay results published in publication PMC3567212 (Biochemistry, 2012).
Numbering of substitutions follows the chain as printed.

Key:
Assay in all cases: coupled spectrophotometric assay
Format in all cases: biochemical
[1] = molecular target: T1, Rhizobium etli pyruvate carboxylase (RePC) (Rhizobium etli, UniProt Q2K340, R427S)
T1 sequence (Q2K340 1-1154 R427S): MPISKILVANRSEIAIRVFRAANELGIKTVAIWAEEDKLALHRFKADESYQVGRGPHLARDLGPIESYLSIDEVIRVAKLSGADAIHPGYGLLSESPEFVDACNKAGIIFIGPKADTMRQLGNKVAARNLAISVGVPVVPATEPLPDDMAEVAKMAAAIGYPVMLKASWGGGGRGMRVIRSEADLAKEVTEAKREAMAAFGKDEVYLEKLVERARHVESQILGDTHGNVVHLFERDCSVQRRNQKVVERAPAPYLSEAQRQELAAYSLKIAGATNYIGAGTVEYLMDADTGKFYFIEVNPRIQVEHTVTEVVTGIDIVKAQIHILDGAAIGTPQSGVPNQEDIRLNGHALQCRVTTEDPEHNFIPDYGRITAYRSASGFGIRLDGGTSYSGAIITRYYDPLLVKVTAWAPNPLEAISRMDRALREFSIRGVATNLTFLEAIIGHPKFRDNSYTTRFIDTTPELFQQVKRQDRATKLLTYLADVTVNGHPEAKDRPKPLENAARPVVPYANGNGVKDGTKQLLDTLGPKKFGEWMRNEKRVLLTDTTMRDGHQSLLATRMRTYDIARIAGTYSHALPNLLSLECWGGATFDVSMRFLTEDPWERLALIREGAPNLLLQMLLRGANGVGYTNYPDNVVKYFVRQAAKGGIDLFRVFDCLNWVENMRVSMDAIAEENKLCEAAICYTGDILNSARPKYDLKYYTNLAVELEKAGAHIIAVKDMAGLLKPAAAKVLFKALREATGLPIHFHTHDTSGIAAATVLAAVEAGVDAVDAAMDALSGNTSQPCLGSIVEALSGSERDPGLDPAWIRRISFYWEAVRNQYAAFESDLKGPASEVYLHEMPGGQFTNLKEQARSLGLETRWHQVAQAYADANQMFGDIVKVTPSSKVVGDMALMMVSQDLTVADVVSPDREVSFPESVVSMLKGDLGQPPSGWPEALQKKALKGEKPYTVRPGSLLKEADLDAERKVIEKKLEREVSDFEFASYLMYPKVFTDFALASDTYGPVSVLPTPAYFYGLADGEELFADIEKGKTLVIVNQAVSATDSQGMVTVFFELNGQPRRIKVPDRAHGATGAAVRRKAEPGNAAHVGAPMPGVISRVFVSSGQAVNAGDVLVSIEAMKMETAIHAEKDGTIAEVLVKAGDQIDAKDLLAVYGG

[2] = molecular target: T2, Rhizobium etli pyruvate carboxylase (RePC) (Rhizobium etli, UniProt Q2K340)
T2 sequence (Q2K340 1-1154): T1 sequence (Q2K340 1-1154 R427S) with S427R

[3] = molecular target: Rhizobium etli pyruvate carboxylase (RePC) (Rhizobium etli, UniProt Q2K340, R472S)

N[C@@H](CC(=O)O)C(=O)O [L-aspartate]
Ki [1]: 7 ± 1 mM
Ki [2]: 5 ± 0.6 mM
Ki [3]: 7 ± 1 mM
